Laboratory results as given in US5549903A, “Microencapsulated composition containing chlorpyrifos or endosulfsan” (priority 1994, dated 1996).

Columns and labels:
[1] = test system: mice; settings: technical material; cited from earlier work
[2] = Stability of endosulfan to irradiation; format: physicochemical; settings: 100 hours at 310±5 nanometers and 475± nanometers
From the text: Details of the stability of chlorpyrifos are listed in Example 2.

[3] = Stability of unprotected chlorpyrifos to UV/visible light; format: physicochemical; settings: 68 hours
Procedure: Unprotected chlorpyrifos was irradiated by an ultraviolet/visible light lamp for 68 hours. The stability versus the wavelength of the light is summarized as follows: […]

[4] = test system: honey bees; settings: technical chlorpyrifos, comparison value; cited from earlier work
[5] = test system: honey bees; settings: technical chlorpyrifos, comparison value; cited from earlier work; remark: listed apart in the source
[6] = test system: rats; settings: technical chlorpyrifos; cited from earlier work

SMILES | LD50 [1] | decomposition after irradiation [2] | Extent of Degradation ([3]; 313 ± 5 nm) | Extent of Degradation ([3]; 365 ± 5 nm) | Extent of Degradation ([3]; 404 ± 5 nm) | Extent of Degradation ([3]; 436 ± 5 nm) | LD50 oral [4] | LD50 contact [5] | LD50 (acute oral) [6]
O=S1OCC2C(CO1)C1(Cl)C(Cl)=C(Cl)C2(Cl)C1(Cl)Cl (stereo not drawn) [endosulfan, 6,7,8,9,10-hexachloro-1,5-5a,9a tetryhydro-6,9-methano-2,4,3-benzodioxathipia-3-oxide] | 30 mg/kg | decomposed |  |  |  |  |  |  | 
CCOP(=S)(OCC)Oc1nc(Cl)c(Cl)cc1Cl [chlorpyrifos, O,O-diethyl-O-(3,5,6-trichloro-2-pyridyl)-phosphorathio-ate] |  |  | Total degradation | Low degradation | Low degradation | Medium degradation | 0.25 μg/bee | 0.059 μ/bee | 168 mg/kg
